Assay results from BindingDB's records for doi:10.1016/s0960-894x(01)00011-7 (Institute, 2001).

Key:
[1] = Inhibitory activity against non-nucleoside reverse transcriptase inhibitors (NNRTI) -resistant HIV-1 strain A17 with a Y181C mutation in RT (reverse transcriptase)
[2] = as above; remark: listed apart in the source
[3] = Inhibitory activity against non-nucleoside reverse transcriptase inhibitors (NNRTI) -resistant HIV-1 strain A17 with a Y181C mutation in reverse transcriptase

S=C(NCc1ccco1)Nc1nccs1 [1-Furan-2-ylmethyl-3-thiazol-2-yl-thiourea]
IC50 [1]: 2000 nM

Oc1ccc(CCNC(=S)Nc2ccc(Br)cn2)cc1 [1-(5-Bromo-pyridin-2-yl)-3-[2-(4-hydroxy-phenyl)-ethyl]-thiourea]
IC50 [2]: 70 nM

S=C(NCCc1cccs1)Nc1ccc(Br)cn1 [1-(5-Bromo-pyridin-2-yl)-3-(2-thiophen-2-yl-ethyl)-thiourea]
IC50 [2]: 48 nM

S=C(NCCc1cccs1)Nc1nccs1 [1-Thiazol-2-yl-3-(2-thiophen-2-yl-ethyl)-thiourea]
IC50 [3]: > 100000 nM

S=C(NCC12CC3CC(CC(C3)C1)C2)Nc1nccs1 [1-Adamantan-1-ylmethyl-3-thiazol-2-yl-thiourea]
IC50 [1]: 600 nM

CCC(NC(=S)Nc1nccs1)c1ccccc1 (stereo not given) [1-(1-Phenyl-propyl)-3-thiazol-2-yl-thiourea]
IC50 [2]: 2100 nM

S=C(NCCOc1ccccc1)Nc1nccs1 [1-(2-Phenoxy-ethyl)-3-thiazol-2-yl-thiourea]
IC50 [1]: 4400 nM

Cc1ccc(CCNC(=S)Nc2nccs2)cc1 [1-Thiazol-2-yl-3-(2-p-tolyl-ethyl)-thiourea]
IC50 [1]: 3900 nM

S=C(NCCc1c[nH]c2ccccc12)Nc1nccs1 [1-[2-(1H-Indol-3-yl)-ethyl]-3-thiazol-2-yl-thiourea]
IC50 [1]: 2200 nM

S=C(NCCC1=CCCCC1)Nc1nccs1 [1-(2-Cyclohex-1-enyl-ethyl)-3-thiazol-2-yl-thiourea]
IC50 [1]: 900 nM
